Data from patent US8119681B2, “2-[1-phenyl-5-hydroxy or methoxy-4alpha-methyl-hexahydrocyclopenta [ƒ]indazole-5-YL]ethyl phenyl derivatives as glucocorticoid receptor ligands” (Merck Sharp & Dohme Corp., priority 2006, dated 2012).

Molecular target: T1, human GR (Homo sapiens, UniProt P04150)
T1 sequence (P04150 1-777): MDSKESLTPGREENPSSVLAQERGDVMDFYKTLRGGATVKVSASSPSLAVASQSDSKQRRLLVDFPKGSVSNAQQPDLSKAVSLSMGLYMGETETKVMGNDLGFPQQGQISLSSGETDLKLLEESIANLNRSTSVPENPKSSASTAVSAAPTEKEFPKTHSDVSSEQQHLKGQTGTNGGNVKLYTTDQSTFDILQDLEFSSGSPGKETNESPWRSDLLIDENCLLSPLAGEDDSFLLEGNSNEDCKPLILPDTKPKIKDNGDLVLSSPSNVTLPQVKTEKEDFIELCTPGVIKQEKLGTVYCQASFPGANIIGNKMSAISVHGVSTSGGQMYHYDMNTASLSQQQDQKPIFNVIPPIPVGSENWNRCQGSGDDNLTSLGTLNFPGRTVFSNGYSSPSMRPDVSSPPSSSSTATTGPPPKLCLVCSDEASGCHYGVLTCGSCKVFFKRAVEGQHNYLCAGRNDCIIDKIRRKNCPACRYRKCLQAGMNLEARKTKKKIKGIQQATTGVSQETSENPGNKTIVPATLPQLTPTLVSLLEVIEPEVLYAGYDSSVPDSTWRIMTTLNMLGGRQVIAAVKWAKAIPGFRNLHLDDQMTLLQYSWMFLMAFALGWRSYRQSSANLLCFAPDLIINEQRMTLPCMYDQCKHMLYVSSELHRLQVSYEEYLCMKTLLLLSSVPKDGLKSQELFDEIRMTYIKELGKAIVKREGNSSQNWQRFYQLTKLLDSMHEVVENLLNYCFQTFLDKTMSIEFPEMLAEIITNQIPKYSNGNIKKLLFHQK
Assay: Transrepression Assay (GITAR), TNFα-β-lactamase reporter gene in U937 cells
Format: cell-based
Design: U937 cells contain an endogenous glucocorticoid receptor (GR); endogenous in cells; host or cells: U937 cells stably transfected with the TNF-α promoter/β-lactamase reporter only
Conditions: U-937; 100 nM dexamethasone = 100% activity; read-out: maximal activity in the transrepression assay
Source text: Transrepression Assay (GITAR)
This assay assesses the ability of test compounds to control transcription from the TNFα-β-lactamase reporter gene in U937 cells, a human myelomonocytic leukemia cell line that naturally expresses the human GR. The assay measures compound dependent-repression of the TNFa promoter linked to a reporter gene.
The human U937 cells that had been stably transfected with the TNF-α promoter driving β-lactamase are used for this assay. U937 cells contain an endogenous glucocorticoid receptor (GR). […] 50,000 cells/well are plated in 96 well black-walled plates the day of assay. Test compounds are added 10 μL/well, and cells are incubated at 37° C. for 30˜45 min. For assaying compounds, first dilute 1:10 in DMSO to make 1 mM, then further dilute 1:100 in medium to make 10× stock prior to adding to the cells. Add 50 ng/ml PMA (Sigma, cat# P8139) 10 μL/well to a final concentration 5 ng/ml, and 1 μg/ml LPS (Sigma, cat# L4130) 10 μL/well to a final concentration 100 ng/ml. Incubate cells at 370 C overnight for ˜18 hr. PMA is stored frozen as 100 μg/ml stock in DMSO. Dilute 1:10 in DMSO for a working stock of 10 μg/ml and store at −20 C. For assaying, dilute the 10 μg/ml working stock 1:200 in medium to make a 10× solution (50 ng/ml). Store frozen LPS at 1 mg/ml in PBS, dilute 1:1000 in medium to make 10× (1 μg/ml) for the assay. Add 6× loading buffer (CCF2-AM) 20 μL/well, and incubate at room temperature for 70˜90 min. […] The activity repressed by 100 nM dexamethasone alone is set as 100% activity.

Emax | Structure (SMILES)
5 to 100% | C[C@]12Cc3cnn(-c4ccc(F)cc4)c3C=C1CC[C@@]2(O)CCc1cccc(F)c1CNS(=O)(=O)CS(C)(=O)=O [Example 97, N-(2-fluoro-6-{2-[(4αS,5R)-1-(4-fluorophenyl)-5-hydroxy-4α-methyl-1,4,4α,5,6,7-hexahydrocyclopenta[f]indazol-5-yl]ethyl}benzyl)-1-(methylsulfonyl)methanesulfonamide]
5 to 100% | C[C@]12Cc3cnn(-c4ccc(F)cc4)c3C=C1CC[C@@]2(O)CCc1cccc(F)c1CNS(C)(=O)=O [Example 98, N-(2-fluoro-6-{2-[(4αS,5R)-1-(4-fluorophenyl)-5-hydroxy-4α-methyl-1,4,4α,5,6,7-hexahydrocyclopenta[f]indazol-5-yl]ethyl}benzyl)methanesulfonamide]
5 to 100% | C[C@H](NS(=O)(=O)CC(F)(F)F)c1c(F)cccc1CC[C@]1(O)CCC2=Cc3c(cnn3-c3ccc(F)cc3)C[C@@]21C [Example 99, 2,2,2-trifluoro-N-[(1S)-1-(2-fluoro-6-{2-[(4αS,5R)-1-(4-fluorophenyl)-5-hydroxy-4α-methyl-1,4,4α,5,6,7-hexahydrocyclopenta[f]indazol-5-yl]ethyl}phenyl)ethyl]ethanesulfonamide]
5 to 100% | C[C@]12Cc3cnn(-c4ccc(F)cc4)c3C=C1CC[C@@]2(O)CCc1cccc(F)c1C1(NS(=O)(=O)C2CC2)CC1 [Example 100, N-[1-(2-fluoro-6-{2-[(4αS,5R)-1-(4-fluorophenyl)-5-hydroxy-4α-methyl-1,4,4α,5,6,7-hexahydrocyclopenta[f]indazol-5-yl]ethyl}phenyl)cyclopropyl]cyclopropanesulfonamide]
5 to 100% | C[C@]12Cc3cnn(-c4ccc(F)cc4)c3C=C1CC[C@@]2(O)CCc1cccc(F)c1[C@@H](NS(=O)(=O)CC(F)(F)F)C(F)(F)F [Example 101, 2,2,2-trifluoro-N-[(1R)-2,2,2-trifluoro-1-(2-fluoro-6-{2-[(4αS,5R)-1-(4-fluorophenyl)-5-hydroxy-4α-methyl-1,4,4α,5,6,7-hexahydrocyclopenta[f]indazol-5-yl]ethyl}phenyl)ethyl]ethanesulfonamide]
5 to 100% | C[C@]12Cc3cnn(-c4ccc(F)cc4)c3C=C1CC[C@@]2(O)CCc1cccc(F)c1C1(NS(=O)(=O)CC(F)(F)F)CC1 [Example 102, 2,2,2-trifluoro-N-[1-(2-fluoro-6-{2-[(4αS,5R)-1-(4-fluorophenyl)-5-hydroxy-4α-methyl-1,4,4α,5,6,7-hexahydrocyclopenta[f]indazol-5-102yl]ethyl}phenyl)cyclopropyl]ethanesulfonamide]
5 to 100% | C[C@]12Cc3cnn(-c4ccc(F)cc4)c3C=C1CC[C@@]2(O)CCc1ccccc1CNCC1CC1 [Example 103, (4αS,5R)-5-[2-(2-{[(cyclopropylmethyl}amino]methyl}phenyl)ethyl]-1-(4-fluorophenyl)-4α-methyl-1,4,4α,5,6,7-hexahydrocyclopenta[f]indazol-5-ol]
5 to 100% | C[C@]12Cc3cnn(-c4ccc(F)cc4)c3C=C1CC[C@@]2(O)CCc1ccccc1CNCC(F)(F)F [Example 104, (4αS,5R)-1-(4-fluorophenyl)-4α-methyl-5-[2-[2-{[(2,2,2-trifluoroethyl)amino]methyl}phenyl)ethyl]-1,4,4α,5,6,7-hexahydrocyclopenta[f]indazol-5-ol]

Continued, compound first:

Structure (SMILES) | Emax
C[C@]12Cc3cnn(-c4ccc(F)cc4)c3C=C1CC[C@@]2(O)CCc1cccc(F)c1CNS(=O)(=O)c1ccc(F)cc1F [Example 79, 2,4-difluoro-N-(2-fluoro-6-{2-[(4αS,5R)-1-(4-fluorophenyl)-5-hydroxy-4α-methyl-1,4,4α,5,6,7-hexahydrocyclopenta[f]indazol-5-yl]ethyl}benzyl)benzenesulfonamide] | 5 to 100%
C[C@]12Cc3cnn(-c4ccc(F)cc4)c3C=C1CC[C@@]2(O)CCc1cccc(F)c1CNS(=O)(=O)c1ccccc1F [Example 80, 2-fluoro-N-(2-fluoro-6-{2-[(4αS,5R)-1-(4-fluorophenyl)-5-hydroxy-4α-methyl-1,4,4α,5,6,7-hexahydrocyclopenta[f]indazol-5-yl]ethyl}benzyl)benzenesulfonamide] | 5 to 100%
C[C@]12Cc3cnn(-c4ccc(F)cc4)c3C=C1CC[C@@]2(O)CCc1cccc(F)c1CNS(=O)(=O)c1cccc(C#N)c1 [Example 81, 3-cyano-N-(2-fluoro-6-{2-[(4αS,5R)-1-(4-fluorophenyl)-5-hydroxy-4α-methyl-1,4,4α,5,6,7-hexahydrocyclopenta[f]indazol-5-yl]ethyl}benzyl)benzenesulfonamide] | 5 to 100%
C[C@]12Cc3cnn(-c4ccc(F)cc4)c3C=C1CC[C@@]2(O)CCc1cccc(F)c1CNS(=O)(=O)c1cccnc1 [Example 82, N-(2-fluoro-6-{2-[(4αS,5R)-1-(4-fluorophenyl)-5-hydroxy-4α-methyl-1,4,4α,5,6,7-hexahydrocyclopenta[f]indazol-5-yl]ethyl}benzyl)pyridine-3-sulfonamide] | 5 to 100%
C[C@]12Cc3cnn(-c4ccc(F)cc4)c3C=C1CC[C@@]2(O)CCc1ccccc1CNS(C)(=O)=O [Example 87, N-(2-{2-[(4αS,5R)-1-(4-fluorophenyl)-5-hydroxy-4α-methyl-1,4,4α,5,6,7-hexahydrocyclopenta[f]indazol-5-yl]ethyl}benzyl)methanesulfonamide] | 5 to 100%
C[C@]12Cc3cnn(-c4ccc(F)cc4)c3C=C1CC[C@@]2(O)CCc1ccccc1CNS(=O)(=O)CC(F)(F)F [Example 90, 2,2,2-trifluoro-N-(2-{2-[(4αS,5R)-1-(4-fluorophenyl)-5-hydroxy-4α-methyl-1,4,4α,5,6,7-hexahydrocyclopenta[f]indazol-5-yl]ethyl}benzyl)ethanesulfonamide] | 5 to 100%
C[C@]12Cc3cnn(-c4ccc(F)cc4)c3C=C1CC[C@@]2(O)CCc1cccc(F)c1CNS(=O)(=O)c1ccco1 [Example 92, N-(2-fluoro-6-{2-[(4αS,5R)-1-(4-fluorophenyl)-5-hydroxy-4α-methyl-1,4,4α,5,6,7-hexahydrocyclopenta[f]indazol-5-yl]ethyl}benzyl)furan-2-sulfonamide] | 5 to 100%
Cn1cnc(S(=O)(=O)NCc2c(F)cccc2CC[C@]2(O)CCC3=Cc4c(cnn4-c4ccc(F)cc4)C[C@@]32C)c1 [Example 93, N-(2-fluoro-6-{2-[(4αS,5R)-1-(4-fluorophenyl)-5-hydroxy-4α-methyl-1,4,4α,5,6,7-hexahydrocyclopenta[f]indazol-5-yl]ethyl}benzyl)-1-methyl-1H-imidazole-4-sulfonamide] | 5 to 100%
C[C@]12Cc3cnn(-c4ccc(F)cc4)c3C=C1CC[C@@]2(O)CCc1cccc(F)c1CNS(=O)(=O)c1ccccc1C#N [Example 94, 2-cyano-N-(2-fluoro-6-{2-[(4αS,5R)-1-(4-fluorophenyl)-5-hydroxy-4α-methyl-1,4,4α,5,6,7-hexahydrocyclopenta[f]indazol-5-yl]ethyl}benzyl)benzenesulfonamide] | 5 to 100%
C[C@H](NS(=O)(=O)C1CC1)c1ccccc1CC[C@]1(O)CCC2=Cc3c(cnn3-c3ccc(F)cc3)C[C@@]21C [Example 95, N-[(1S)-1-(2-{2-[(4αS,5R)-1-(4-fluorophenyl)-5-hydroxy-4α-methyl-1,4,4α,5,6,7-hexahydrocyclopenta[f]indazol-5-yl]ethyl}phenyl)ethyl]cyclopropanesulfonamide] | 5 to 100%
C[C@@H](NS(=O)(=O)CC(F)(F)F)c1c(F)cccc1CC[C@]1(O)CCC2=Cc3c(cnn3-c3ccc(F)cc3)C[C@@]21C [Example 96, 2,2,2-trifluoro-N-[(1R)-1-(2-fluoro-6-{2-[(4αS,5R)-1-(4-fluorophenyl)-5-hydroxy-4α-methyl-1,4,4α,5,6,7-hexahydrocyclopenta[f]indazol-5-yl]ethyl}phenyl)ethyl]ethanesulfonamide] | 5 to 100%
